Laboratory results published in ChEMBL document CHEMBL1649479, “In vitro activity of doripenem against Burkholderia pseudomallei” (2009).
In brackets after ≈: the same amount, converted by molar mass.

Columns and labels:
Type in all cases: functional
[1] = test system: Burkholderia pseudomallei; test: Antimicrobial activity against Burkholderia pseudomallei by agar dilution method
[2] = test system: Burkholderia pseudomallei; test: Antimicrobial activity against Burkholderia pseudomallei by Etest method
Pseudomonas aeruginosa = test: Antimicrobial activity against Pseudomonas aeruginosa ATCC 27853 by agar dilution method
[3] = test system: Burkholderia pseudomallei; test: Selectivity ratio of MIC for Burkholderia pseudomallei by agar dilution method to MIC for Burkholderia pseudomallei by Etest method
Escherichia coli = test: Antimicrobial activity against Escherichia coli ATCC 25922 by agar dilution method
[4] = Burkholderia pseudomallei, read-out: MIC90

SMILES	MIC50 ([1]; Burkholderia pseudomallei) [µg/mL]	MIC90 [1, 4] [µg/mL]	MIC50 [2] [µg/mL]	MIC90 [2] [µg/mL]	MIC90 [1]	inhibition zone (IZ) [1] [mm]	MIC (Pseudomonas aeruginosa) [µg/mL]	MIC [2] [µg/mL]	Ratio [3]	MIC (Escherichia coli) [µg/mL]
C[C@@H](O)[C@H]1C(=O)N2C(C(=O)O)=C(S[C@@H]3CN[C@H](C(=O)N(C)C)C3)[C@H](C)[C@H]12 [MEROPENEM]	3 (≈ 7.82 µM)	4 (≈ 10.4 µM)	1 (≈ 2.61 µM)	2 (≈ 5.22 µM)						
C[C@@H](O)[C@H]1C(=O)N2C(C(=O)O)=C(SCCNC=N)C[C@H]12 [IMIPENEM ANHYDROUS]	1 (≈ 3.34 µM)	1 (≈ 3.34 µM)	0.5 (≈ 1.67 µM)	1 (≈ 3.34 µM)						
C[C@@H](O)[C@H]1C(=O)N2C(C(=O)O)=C(S[C@@H]3CN[C@H](CNS(N)(=O)=O)C3)[C@H](C)[C@H]12 [DORIPENEM]	1 (≈ 2.38 µM)	1.5 (≈ 3.57 µM)	0.5 (≈ 1.19 µM)	0.75 (≈ 1.78 µM)	<=2 ug ml-1	24	0.125 (≈ 0.297 µM)	0.19 (≈ 0.452 µM)	2	0.012 (≈ 0.0285 µM)
